Entries after “also recorded” stand apart in the source; their conditions may differ. Like-named read-outs stand apart in the source and are kept apart here.
Assays:
A549 cells [1] = experiment: β-galactosidase (CPRG microtiter) activity in A549 cells transfected with reporter plasmid-cationic lipid; assay type: cell-based, human; details: for β-gal expression over untreated cells: 10^−6 M beclomethasone 4 hours; for βgal activity versus medium treated, transfected cells: then beclomethasone 4 hours prior to transfection
primary rat lung cells = experiment: β-gal activity in primary rat lung cells transfected with pCMVβgal-DMRIE/DOPE; assay type: cell-based
A549 cells [2] = experiment: X-gal staining, count of stained transfected A549 cells; assay type: cell-based, human; details: BEC 10^−6 M 4 hours, DNA-DMRIE/DOPE, 48 hours, stained cells in 1×1 cm^2 area
Protocol: All transfections were performed in OPTIMEM (GIBCO-Life Technologies). One μg of pCMVβ gal was combined with 4 μg of DMRIE/DOPE or 3 μg of DOSPA/DOPE in 1 ml of OPTIMEM and incubated for 15 minutes at room temperature. Cell monolayers were washed twice in serum-free medium then overlaid with 1 ml of transfection mixture and incubated for 2.5 hours at 37° C. in a humidified, 5% CO2. DNA-liposome overlay was replaced with DMEM plus 10% FBS and cells were incubated for 48 hours. Cell lysates were harvested and assayed for total protein according to the manufacturer's instructions (BCA assay, Pierce Chemical, Rockfield, Ill.) and β -galactosidase activity was determined using a Chlorophenored-β-D-galactopyranoside colorimetric microtiter assay as described (CPRG) assay (Boerhinger-Mannheim, Germany). […]
For stained cells, duplicate cell cultures of A549 cells were treated for 4 hours with beclomethasone dipropionate or medium only, then transfected with pCMVβgal using DMRIE/DOPE. At 48 hours, one set of cultures was lysed and βgal activity determined while the other set was fixed with neutral buffered formalin and stained with β-gal (duplicate wells for each treatment). Stained cells were counted in a 1×1 cm^2 area.

A549 cells [3] = experiment: 3H-thymidine-labeled pCMVβgal plasmid-lipid uptake; assay type: cell-based, human; details: several concentrations, 4 hours pretreatment, uptake at 2 hours
Protocol: A549 cells were pretreated with medium or beclomethasone at the dose specified for 4 hours, then transfected with ^3H-thymidine-labeled pCMVβgal. Two hours post-transfection, cells were washed, lightly trypsinized and pelleted by centrifugation. Pellets were then lysed, resuspended, and liquid scintillation cocktail added. ^3H-thymidine-labeled pCMVβgal uptake (CPM) per sample was determined. Results represent the average and standard deviation from 4 experiments and each experimental point was performed in duplicate. Fold-change=CPM beclomethasone-pretreated/CPM medium pretreated.
^3H-thymidine-labeled pCMVβgal plasmid was prepared by adding 1 mCi of ^3H-TdR (^3H-TdR, 74GBq/mmol, Amersham) to a 25 ml overnight culture of pCMVβgal-transformed DH5α strain of Escherichia coli. Labeled plasmid was isolated using Qiagen tip columns (100 μg size, Chatsworth, Calif.) per manufacturer's instructions. Saturable binding of the labeled DNA was determined as follows. Serial dilutions, from 1 μg-0.125 μg of ^3-H-TdR-labeled DNA was added to A549 cells and incubated for either 2, 6 or 24 hours. […] Pellets were lysed in 100 μl of lysis buffer (0.1 M TRIS and 0.5% Triton X-100), liquid scintillation cocktail added (BCS, Amersham) and ^3H-plasmid label quantitated by liquid scintillation. […] Uptake was determined as described above.

A549 cells [4] = experiment: β-gal mRNA levels by RNA-specific PCR (RS-PCR); assay type: cell-based, human
Protocol: A549 cells were treated with 10^-6 M beclomethasone or medium for 4 hours. Cells were transfected with 1 μg/ml pCMVβgal plus 4 μg/ml DMRIE/DOPE. At times specified (hours) after transfection, total RNA was harvested, converted to cDNA and specific βgal messages amplified by RS-PCR as described below. RS-PCR samples were resolved on a 1% TAE agarose gel and transferred to nylon filter. Filter was hybridized to a ^32P-labeled βgal probe. Filter was analyzed by betascanner and bands of the appropriate size counted. Fold-change=βgal CPM in beclomethasone treated cells/βgal. CPM in medium-treated cells. […] Briefly, cells were pre-treated with beclomethasone at 10^-6 M and transfected as described above. After the incubation was complete, cells were lysed using acidified guanidinium isothiocyante (Fluka Chemical), containing 0.75 M sodium citrate and 1% sarkosyl. RNA was harvested using the RNAeasy system (Qiagen, Chatsworth, Calif.). Total RNA quantity was determined by A260 and, 0.5 μg of the RNA was run on a gel to determine RNA integrity. Using 0.3 μg of total RNA, cDNAs were prepared using MMLV reverse transcriptase (GIBCO, Life Technologies), substituting primer […] […] One μl of cDNA was spotted to duplicate nitrocellulose filters and counted by LSC. […] Blots were evaluated on a Betagen betascanner and CPM for bands of the correct size were determined.

[5] = various doses, 4 hours prior to transfection with pCMVβ gal or pSVβ using DMRIE/DOPE

Question: Which “β-gal activity in control cells with protein synthesis inhibitor” value (A549 cells [1]; CHX 10 μg/ml, 30 minutes + 4 hours) does the source give for `C[C@@H]1C[C@@H]([C@H](O)CC2CC(=O)NC(=O)C2)C(=O)[C@@H](C)C1` [CHX, cycloheximide] here?
Answer: moderately suppressed the β-gal activity

Question: What does the source list for `CC1(C)O[C@@H]2C[C@H]3[C@@H]4C[C@H](F)C5=CC(=O)C=C[C@]5(C)[C@H]4[C@@H](O)C[C@]3(C)[C@]2(C(=O)CO)O1` [FLUN, flunisolide]?
Answer: Degree of β-gal enhancement compared with the other glucocorticoids (A549 cells [1]; 10^−6 M, 4 hours prior to transfection): less of an enhancing effect; Enhancement of β-gal activity by other topical glucocorticoids (FIG. 2B) (A549 cells [1]; 10^−6 M, 4 hours prior to transfection, pCMVβgal-DMRIE/DOPE): enhanced β-gal activity

Question: `CCC(=O)OCC(=O)[C@@]1(OC(=O)CC)[C@@H](C)C[C@H]2[C@@H]3CCC4=CC(=O)C=C[C@]4(C)[C@@]3(Cl)[C@@H](O)C[C@@]21C` [beclomethasone, beclomethasone dipropionate] was tested. Which “Enhancement of β-gal activity” value (A549 cells [1]; 5×10^−7 M to 10^−6 M, 4 hours prior to transfection, pCMVβgal-DMRIE/DOPE) did it give?
Answer: 2-4 fold

Question: What about the “Minimum beclomethasone exposure required to see enhanced β-gal transfection” value (A549 cells [1]; 10^−6 M) of the same compound?
Answer: 3 to 4 h

Question: And the “β-gal expression over untreated cells” value (A549 cells [1]; then IL-1β 4 hours prior to transfection)?
Answer: 2 fold

Question: And the “β-gal expression over untreated cells” value (A549 cells [1]; then lipopolysacchride 4 hours prior to transfection)?
Answer: 2 fold

Question: And the “Beclomethasone-mediated enhancement of β-gal activity in presence of CHX” value (A549 cells [1]; 10^−6 M beclomethasone + CHX 10 μg/ml, 4 hours)?
Answer: even greater in the presence of CHX

Question: What about the “Enhancement of β-gal activity (FIG. 3)” value (A549 cells [1]; 10^−6 M beclomethasone only, 4 hours) of the same compound?
Answer: 2.5 fold

Question: What about the “Pre-treatment time at which enhanced β-gal activity was maximized” value (A549 cells [1]; 10^−6 M, remained maximal for the 24 hours monitored) of the same compound?
Answer: ≤ 8 h

Question: And the “Enhancement of β-gal activity” value (A549 cells [1]; 10^−7 M, 4 hours prior to transfection, pCMVβgal-DMRIE/DOPE)?
Answer: only slight enhancement

Question: What about the “FOLD-CHANGE, βGAL ACTIVITY” value (A549 cells [1]; BEC 10^−6 M 4 hours, DNA-DMRIE/DOPE, 48 hours) of the same compound?
Answer: 3

Question: And the “βgal activity versus medium treated, transfected cells” value (A549 cells [1]; IL-1β 4 hours first)?
Answer: augmented βgal activity above what was seen in medium treated, transfected cells

Question: What about the “Concentration producing maximal enhanced reporter gene activity” value (A549 cells [1]; alternate lipid, promoter or reporter) of the same compound?
Answer: 5×10^−7 to 10^−6 M

Question: What about the “βgal activity versus medium treated, transfected cells” value (A549 cells [1]; lipopolysacchride 4 hours first) of the same compound?
Answer: augmented βgal activity above what was seen in medium treated, transfected cells

Question: What about the “β-gal expression with alternate cationic lipid” value (A549 cells [1]; pCMVβgal and DOSPA/DOPE (FIG. 5A)) of the same compound?
Answer: also enhanced

Question: And the “β-gal enhancement with SV40 promoter vector” value (A549 cells [1]; pSVβ-DMRIE/DOPE (FIG. 5B))?
Answer: enhancement was observed

Question: What about the “Effectiveness of 10^−6 M compared with 10^−7 M” value (primary rat lung cells; 10^−6 M) of the same compound?
Answer: less effective than was 10^−7 M

Question: What about the “βgal activity, beclomethasone pretreatment followed by lipopolysacchride stimulation” value (primary rat lung cells; 4 hours beclomethasone + 4 hours lipopolysacchride) of the same compound?
Answer: restored βgal activity to that of the medium pre-treated cells

Question: What about the “Concentration of optimum enhancement in βgal activity” value (primary rat lung cells; 4 hours pretreatment) of the same compound?
Answer: 10^−7 M

Question: And the “Enhancement of β-gal activity” value (primary rat lung cells; 4 hours pretreatment, pCMVβgal-DMRIE/DOPE, composite of several rat cell preparations)?
Answer: 2 fold

Question: And the “FOLD-CHANGE, X-GAL STAINING” value (A549 cells [2])?
Answer: 1.5 ± 0.7

Question: And the “Uptake of radiolabeled plasmid” value (A549 cells [3])?
Answer: does not appear to enhance uptake

Question: What about the “Steady-state β-gal mRNA levels versus medium-treated cells” value (A549 cells [4]; T=3 and T=24 hours, 10^−6 M) of the same compound?
Answer: definite increase in steady-state m RNA levels

Question: What about the “β-gal mRNA induction” value (A549 cells [4]; T=2 hours after transfection, 10^−6 M 4 hours pretreatment) of the same compound?
Answer: 18 fold

Question: `CC(C)CCC[C@@H](C)[C@H]1CC[C@H]2[C@@H]3CC=C4C[C@@H](O)CC[C@]4(C)[C@H]3CC[C@]12C` [cholesterol] was tested. Which “Enhancement of β-gal / reporter gene expression by other steroids” value (A549 cells [1]; [5]) did it give?
Answer: Enhancement of β-gal was only seen in the beclomethasone treated cells; also recorded: did not enhance reporter gene expression

Question: `C[C@]12CC[C@@H]3c4ccc(O)cc4CC[C@H]3[C@@H]1CC[C@@H]2O` [estrogen, estradiol] was tested. Which “Enhancement of β-gal / reporter gene expression by other steroids” value (A549 cells [1]) did it give?
Answer: Enhancement of β-gal was only seen in the beclomethasone treated cells; also recorded: did not enhance reporter gene expression

Question: How did the “Enhancement of β-gal / reporter gene expression by other steroids” value (A549 cells [1]; [5]) turn out when `CC(=O)[C@H]1CC[C@H]2[C@@H]3CCC4=CC(=O)CC[C@]4(C)[C@H]3CC[C@]12C` [progesterone] was run?
Answer: Enhancement of β-gal was only seen in the beclomethasone treated cells; also recorded: did not enhance reporter gene expression

Question: With Interleukin-1β [IL-1β] as the compound, how does the “β-gal activity relative to medium treated cells” value (A549 cells [1]; 100 U/ml IL-1β or 0.5 μg/ml lipopolysacchride for 4 hours before transfection with pCMVβgal-DMRIE/DOPE) read?
Answer: decreased β-gal activity significantly; also recorded: suppressed the degree of β-gal expression

Question: Which “Reversal/enhancement of reporter gene expression by another immunosuppressant” value (A549 cells [1]; cells pre-treated with cyclosporine A, cell type not stated) does the source give for cyclosporine A here?
Answer: this effect was not seen; also recorded: the effect was not seen

Source: patent US6656916B1, “Glucocorticoid enhancement of gene expression” (Research Development Foundation, priority 1995, dated 2003)
